From patent publication US11684594B2, “Antifungal prophylaxis for cornea” (PRESIDENT AND FELLOWS OF HARVARD COLLEGE, priority 2020, dated 2023)
Like-named read-outs stand apart in the source and are kept apart here.

What was measured:
[1] = clinical or long-term topical ocular use, cited from earlier work
[2] = test system: Candida, Aspergillus, and Fusarium; details: 0.01% hypochlorous acid (Avenova), cited from earlier work
[3] = test system: human corneal-limbal epithelial cells (HCLE); type: cell-based
Procedure: In Vitro Toxicity Tests. Trypan Blue assays for toxicity of various antimicrobial agents were conducted using human corneal cells. Telomerase-immortalized human corneal-limbal epithelial cells (HCLE) were thawed at 37° C. and quickly transferred to a sterile T75 cell culture flask. Cells were grown in keratinocyte serum-free medium (KSFM; Gibco™; Thermofisher Scientific; Waltham, Mass.) supplemented with bovine pituitary extract (25 μg/mL), epidermal growth factor (0.2 ng/mL), calcium chloride (0.4 mM CaCl2[…]2H2O; Sigma-Aldrich; St Louis, Mo.), and 1× penicillin/streptomycin, at 37° C. with 5% CO2. Once cells were confluent, they were passaged following trypsinization in 12- or 24-well plates. After incubation with Trypsin-EDTA (0.05%, Gibco™; Thermofisher Scientific; Waltham, Mass.) for 5-10 min at 37° C. with 5% CO2, the reaction was stopped with an equivalent volume of neutralizing medium (Dulbecco's Modified Eagle Medium/Nutrient Mixture F-12, DMEM/F-12, with HEPES and 10% newborn calf serum), centrifuged at 5,000×g for 5 min, and re-suspended in supplemented KSFM. Experiments were performed using cells from passages 31 to 36. Once cells reached confluency, they were gently washed twice with DMEM/F-12 (Gibco™; Thermofisher Scientific; Waltham, Mass.) and incubated with an antimicrobial agent for 1 min (n=2 wells per group). Controls included 1×PBS (diluent) and 1% TX-100 (cell permeabilizer). After exposure to various agents, the cells were washed three times with DMEM/F-12, incubated with 0.2% Trypan Blue for 5 min, and washed again three times with DMEM/F-12. The remaining media was aspirated and replaced with 1×PBS for imaging. Macro-images of the culture plate were taken with a smartphone camera (iPhone 7; Apple Inc.; Cupertino, Calif.), and 10× images were taken with an inverted microscope (Eclipse TS100; Nikon; Tokyo, Japan) attached to a digital camera (SPOT Insight Fire Wire; Diagnostic Instruments Inc.; Sterling Heights, Mich.). 3-6 images/well were obtained in clockwise direction from areas immediately adjacent to the center of the well, and without overlapping areas. Images were quantified in ImageJ Fiji software to determine the amount of cell uptake of Trypan Blue. Macros were created from the Color Threshoulder plugin (G. Landini) to batch process the images after color matching in Photoshop to reference images per treatment group. % Area of Trypan Blue staining per image was calculated as follows: (area of blue/area of all)×100%.

C. albicans (ATCC 24433) = test: In vitro time kill test, yeast; type: cell-based, Candida albicans; details: for Ratio fungicidal activity/cytotoxicity: FIG. 3, # of log10 reduction / fold-change in Trypan Blue staining vs PBS (HCLE), 1 min contact, C. albicans
Procedure: (§1) In Vitro Time Kill Tests. Microtiter time kill tests were carried out in vitro according to the published CLSI methods (M27-A2).^22
The inoculum was prepared by adjustment of the optical density at 600 nm (OD600) to 1.0 (corresponding to approximately 1×10^6 CFU/mL), and dilution by 1:10 in the final solution. To confirm the starting inoculum size, yeasts were plated […] and colonies counted after growth for 24 hrs at 37° C. The test solutions were neutralized at each time point by ten-fold dilution in Dey-Engley neutralizing broth (Sigma-Aldrich; St Louis, Mo.), and serially track diluted (PMID: 9343684) on Sabouraud dextrose agar (six serial 1:10 dilutions, 0.01 mL each) in technical triplicate. Colonies were counted and recorded following aerobic incubation for 24 hrs at 37° C.
(§2) To investigate the fungicidal activity of various antibiotics and antimicrobials, the reduction in fungal load after short contact times (0-15 min, FIGS. 2-3), to account for the effect of rapid dilution by the tear film, as occurs in patients after topical instillation, was measured.^23 The detection limit for time kill tests was approximately 100 CFU/mL for C. albicans, and 1 CFU/mL for F. solani and A. fumigatus (corresponding to a ≥3 log difference from the starting inoculum). 20-300 cells were considered a reliable counting range per dilution, and values were averaged when more than one dilution in the same plate were within this range.

[4] = test system: A. fumigatus (ATCC MYA-3626); test: In vitro time kill test, filamentous fungi; type: cell-based, Aspergillus fumigatus; details: for Ratio fungicidal activity/cytotoxicity: FIG. 3, # of log10 reduction / fold-change in Trypan Blue staining vs PBS (HCLE), 1 min contact, A. fumigatus
Procedure: as §1
(§3) ii) Filamentous fungi: The antibiotic solutions, at either full or 1/10 strength, and antiseptics were inoculated with approximately 2×10^5-2×10^6 conidia/mL of F. solani or A. fumigatus in RPMI broth (buffered with MOPS at pH 7.0; Mediatech; Manassas, Va.) for 0-15 min. Conidia were collected by flooding the agar plates with 10 mL of sterile 1×PBS and 0.1% Tween® 20 (Sigma Aldrich; St Louis, Mo.). The solution was transferred to a sterile conical tube, and particles were allowed to settle for 10 min. The resulting supernatant was transferred to a new sterile conical tube and centrifuged at 3,000×g for 5 min. The supernatant was discarded, the remaining pellet was re-suspended in RPMI broth (buffered with MOPS at pH 7.0), and the OD600 was adjusted to 1.0. In the final test solutions, at each time point the inoculum was diluted 1:10 and neutralized in Dey-Engley neutralizing broth (Sigma-Aldrich; St Louis, Mo.). Neutralized cultures were then serially diluted and plated on Sabouraud dextrose agar (two serial 1:10 dilutions, 0.1 mL each) in technical duplicate. Viable conidia were counted and recorded following aerobic incubation for 48 hrs (or as soon as growth was visible) at 25-35° C.
as §2

[5] = test system: F. solani (ATCC MYA-3636); test: In vitro time kill test, filamentous fungi; type: cell-based, Fusarium solani; details: for Ratio fungicidal activity/cytotoxicity: FIG. 3, # of log10 reduction / fold-change in Trypan Blue staining vs PBS (HCLE), 1 min contact, F. solani
Procedure: as §1, §3, §2

[6] = test system: Candida albicans (ATCC 24433), Fusarium solani (ATCC MYA-3636), and Aspergillus fumigatus (ATCC MYA-3626); test: In vitro antifungal testing, statements not resolved by species; type: cell-based
Procedure: Several commonly used antibiotics were tested in vitro against Candida albicans (ATCC 24433), Fusarium solani (ATCC MYA-3636), and Aspergillus fumigatus (ATCC MYA-3626). Time kill activity and minimum inhibitory concentrations (MIC) were determined. Also the antiseptics benzalkonium chloride (BAK), povidone-iodine (PI), and ionic liquids (ILs) consisting of a 1:1 mixture of choline and undecanoic acid, were tested. Toxicity was assayed in vitro on cultures of human corneal epithelial cells, subjected to Trypan Blue staining. Adhesion and tissue invasion experiments were also carried out, with or without γ-irradiation, and by analysis with fluorescent microscopy.
as §1

[7] = 1:1 IL at 10 mM in 1×PBS

OCl [hypochlorous acid]
Tolerability / ocular safety (words) [1]: well tolerated
Tolerability / ocular safety (words) ([1]; listed as Hypochlorous acid): easily tolerated
Fungicidal activity (words) [2]: rapid fungicidal and sporicidal activity within one minute of exposure time
Fungicidal activity (words) ([2]; listed as Hypochlorous acid): highly effective against fungi

Choline undecanoate (1:1) [choline-undecanoate IL]
Trypan Blue staining (% stained area per image) compared to control treatment TX-100 (1%) ([3]; FIG. 2A, confluent HCLE monolayers, 1 min of contact, BAK 40 µg/mL, PI 0.5%, #3-IL 10 mM): significantly lower amount of staining
Cytotoxicity / toxicity ([3]; HCLE cells, post-exposure Trypan blue staining): virtually non-toxic
Reduction in viable C. albicans (C. albicans (ATCC 24433); 10 mM, within 1 min): 1-4 log
Ratio fungicidal activity/cytotoxicity (C. albicans (ATCC 24433)): > 1
Ratio fungicidal activity/cytotoxicity (C. albicans (ATCC 24433); listed as novel IL): highest ratios
Reduction in viable A. fumigatus ([4]; 10 mM, within 1 min): 1-4 log
Ratio fungicidal activity/cytotoxicity [4]: > 1
Ratio fungicidal activity/cytotoxicity ([4]; listed as novel IL): highest ratios
Reduction in viable F. solani ([5]; 10 mM, within 1 min): 1-4 log
Reduction in viable conidia ([5]; FIG. 2C, within 1 min of contact, Polytrim full strength, PI 0.5%, BAK 40 µg/mL, #3-IL 10 mM): 2 log10
Ratio fungicidal activity/cytotoxicity [5]: > 1
Ratio fungicidal activity/cytotoxicity ([5]; listed as novel IL): highest ratios
Efficacy/toxicity ratio, overall rank ([6]; fungicidal activity vs HCLE cytotoxicity, species not resolved): performed even better
Antifungal / fungicidal activity in vitro ([6]; species not resolved, agents at eye-drop or stated concentration): effective
Contact time within which in vitro fungicidal activity was exhibited ([6]; species-, contact time- and concentration-dependent): 1 to 15 min
Light tolerance [7]: tolerant of light exposure
pH [7]: 7.2±0.2
Stability ([7]; room temperature): stable at room temperature for months
